Data published in ChEMBL document CHEMBL1138436, “Biological activity and chemistry of taxoids from the Japanese yew, Taxus cuspidata” (J Nat Prod, 2004).
Converted amounts (≈) assume the structure as drawn.

How the values were obtained:
[1] = test system: HT-29; experiment: Growth inhibition of human HT-29 cells; format: functional; conditions: for CC50: read-out: LC50 (the source's name)
[2] = test system: MKN-45; experiment: Growth inhibition of human MKN45 cells; format: functional
[3] = test system: KM12; experiment: Growth inhibition of human KM12 cells; format: functional
[4] = test system: MKN-74; experiment: Growth inhibition of human MKN74 cells; format: functional
[5] = Growth inhibition of human RXF631L cells; format: functional; conditions: for TGI: RXF 631
[6] = test system: SF-539; experiment: Growth inhibition of human SF539 cells; format: functional
[7] = test system: DU-145; experiment: Growth inhibition of human DU145 cells; format: functional
[8] = test system: MKN-28; experiment: Growth inhibition of human MKN28 cells; format: functional
[9] = test system: NCI-H460; experiment: Growth inhibition of human NCI-H460 cells; format: functional
[10] = test system: NCI-H23; experiment: Growth inhibition of human NCI-H23 cells; format: functional
[11] = test system: NCI-H226; experiment: Growth inhibition of human NCI-H226 cells; format: functional
[12] = test system: KB; experiment: Cytotoxicity against human KB cells; format: functional, cell-based
[13] = read-out: LC50 (the source's name)
[14] = read-out: pLC50 (the source's name) (converted)
[15] = RXF 631, read-out: LC50 (the source's name)
[16] = RXF 631, read-out: pGI50 (converted)
[17] = RXF 631, read-out: pLC50 (the source's name) (converted)

C=C1[C@@H](OC(=O)/C=C/c2ccccc2)C[C@H](OC(C)=O)[C@]2(C)[C@@H]1C[C@]1(C(C)(C)O)C[C@H](OC(C)=O)C(C)=C1[C@@H](OC(=O)c1ccccc1)[C@@H]2OC(C)=O [TAXUSPINE A]
GI50 ([1]; read-out: GI50): 43 µM
CC50 [1]: > 100 µM
TGI ([1]; read-out: TGI): > 100 µM
GI50 ([1]; read-out: pGI50 (converted)): 43.7 µM
TGI ([1]; read-out: pTGI (converted)): 100 µM
GI50 ([2]; read-out: GI50): > 100 µM
CC50 [2, 13]: > 100 µM
TGI ([2]; read-out: TGI): > 100 µM
GI50 ([2]; read-out: pGI50 (converted)): 100 µM
CC50 [2, 14]: 100 µM
TGI ([2]; read-out: pTGI (converted)): 100 µM
GI50 ([3]; read-out: GI50): 6.4 µM
CC50 [3, 13]: > 100 µM
TGI ([3]; read-out: TGI): > 100 µM
GI50 ([3]; read-out: pGI50 (converted)): 6.46 µM
CC50 [3, 14]: 100 µM
TGI ([3]; read-out: pTGI (converted)): 100 µM
GI50 ([4]; read-out: GI50): > 100 µM
CC50 [4, 13]: > 100 µM
GI50 ([4]; read-out: pGI50 (converted)): 9.55 µM
CC50 [4, 14]: 100 µM
TGI ([4]; read-out: pTGI (converted)): 100 µM
TGI [5]: > 100 µM
GI50 ([5]; RXF 631, read-out: GI50): 100 µM
CC50 [5, 15]: > 100 µM
GI50 [5, 16]: 100 µM
CC50 [5, 17]: 100 µM
GI50 ([6]; read-out: GI50): 100 µM
CC50 [6, 13]: > 100 µM
TGI ([6]; read-out: TGI): > 100 µM
GI50 ([6]; read-out: pGI50 (converted)): 100 µM
CC50 [6, 14]: 100 µM
TGI ([6]; read-out: pTGI (converted)): 100 µM
TGI [7]: > 100 µM
GI50 ([7]; read-out: GI50): 100 µM
CC50 [7, 13]: > 100 µM
GI50 ([7]; read-out: pGI50 (converted)): 100 µM
CC50 [7, 14]: 100 µM
GI50 ([8]; read-out: GI50): 12 µM
CC50 [8, 13]: > 100 µM
TGI ([8]; read-out: TGI): > 100 µM
GI50 ([8]; read-out: pGI50 (converted)): 11.7 µM
CC50 [8, 14]: 100 µM
TGI ([8]; read-out: pTGI (converted)): 100 µM
GI50 ([9]; read-out: GI50): 44 µM
CC50 [9, 13]: > 100 µM
TGI ([9]; read-out: TGI): > 100 µM
GI50 ([9]; read-out: pGI50 (converted)): 43.7 µM
TGI ([9]; read-out: pTGI (converted)): 100 µM
GI50 ([10]; read-out: GI50): 100 µM
CC50 [10, 13]: > 100 µM
TGI ([10]; read-out: TGI): > 100 µM
GI50 ([10]; read-out: pGI50 (converted)): 100 µM
CC50 [10, 14]: 100 µM
GI50 ([11]; read-out: GI50): 21 µM
CC50 [11, 13]: > 100 µM
TGI ([11]; read-out: TGI): > 100 µM
GI50 ([11]; read-out: pGI50 (converted)): 83.2 µM
CC50 [11, 14]: 100 µM
TGI ([11]; read-out: pTGI (converted)): 100 µM

CC(=O)O[C@H]1C[C@H]2OC[C@@]2(OC(C)=O)[C@H]2[C@H](OC(=O)c3ccccc3)[C@]3(O)C[C@H](O)C(C)=C([C@@H](O)[C@H](O)[C@]12C)C3(C)C [TAXUSPINE E]
GI50 ([1]; read-out: GI50): 28 µM
CC50 [1]: > 100 µM
TGI ([1]; read-out: TGI): > 100 µM
GI50 ([1]; read-out: pGI50 (converted)): 27.5 µM
TGI ([1]; read-out: pTGI (converted)): 100 µM
GI50 ([2]; read-out: GI50): 27 µM
CC50 [2, 13]: > 100 µM
TGI ([2]; read-out: TGI): > 100 µM
GI50 ([2]; read-out: pGI50 (converted)): 26.9 µM
CC50 [2, 14]: 100 µM
TGI ([2]; read-out: pTGI (converted)): 100 µM
GI50 ([3]; read-out: GI50): 42 µM
CC50 [3, 13]: 100 µM
TGI ([3]; read-out: TGI): > 100 µM
GI50 ([3]; read-out: pGI50 (converted)): 41.7 µM
CC50 [3, 14]: 100 µM
TGI ([3]; read-out: pTGI (converted)): 100 µM
IC50 [12]: 0.08 µg/mL (≈ 0.136 µM)
GI50 ([4]; read-out: GI50): 30 µM
CC50 [4, 13]: > 100 µM
TGI ([4]; read-out: TGI): > 100 µM
GI50 ([4]; read-out: pGI50 (converted)): 30.2 µM
CC50 [4, 14]: 100 µM
TGI ([4]; read-out: pTGI (converted)): 100 µM
TGI [5]: > 100 µM
GI50 ([5]; RXF 631, read-out: GI50): 25 µM
CC50 [5, 15]: 5100 µM
GI50 [5, 16]: 24.5 µM
CC50 [5, 17]: 100 µM
GI50 ([6]; read-out: GI50): 45 µM
CC50 [6, 13]: > 100 µM
TGI ([6]; read-out: TGI): > 100 µM
GI50 ([6]; read-out: pGI50 (converted)): 44.7 µM
CC50 [6, 14]: 100 µM
TGI ([6]; read-out: pTGI (converted)): 100 µM
TGI [7]: > 100 µM
GI50 ([7]; read-out: GI50): 33 µM
CC50 [7, 13]: > 100 µM
GI50 ([7]; read-out: pGI50 (converted)): 32.4 µM
CC50 [7, 14]: 100 µM
GI50 ([8]; read-out: GI50): 31 µM
CC50 [8, 13]: > 100 µM
TGI ([8]; read-out: TGI): > 100 µM
GI50 ([8]; read-out: pGI50 (converted)): 30.9 µM
CC50 [8, 14]: 100 µM
TGI ([8]; read-out: pTGI (converted)): 100 µM
GI50 ([9]; read-out: GI50): 36 µM
TGI ([9]; read-out: TGI): > 100 µM
GI50 ([9]; read-out: pGI50 (converted)): 35.5 µM
TGI ([9]; read-out: pTGI (converted)): 100 µM
GI50 ([10]; read-out: GI50): 23 µM
CC50 [10, 13]: 100 µM
TGI ([10]; read-out: TGI): 69 µM
GI50 ([10]; read-out: pGI50 (converted)): 22.9 µM
CC50 [10, 14]: 100 µM
TGI ([10]; read-out: pTGI (converted)): 69.2 µM
GI50 ([11]; read-out: GI50): 32 µM
CC50 [11, 13]: > 100 µM
TGI ([11]; read-out: TGI): > 100 µM
GI50 ([11]; read-out: pGI50 (converted)): 32.4 µM
CC50 [11, 14]: 100 µM
TGI ([11]; read-out: pTGI (converted)): 100 µM
